Where two headings read alike, the source gives them in different places.
What was measured:
Assay in all cases: biochemical
Parameters in all cases: KINOMEscan scanMAX competition binding, DNA-tagged kinases, qPCR read-out, percent control at 300 nM
EGFR(T790M) = EGFR(T790M) (Homo sapiens, UniProt P00533, T790M)
YSK4 = target: T1, YSK4 (Homo sapiens, UniProt Q56UN5)
T1 construct: gene MAP3K19

ERK4 = target: T2, ERK4 (Homo sapiens, UniProt P31152)
T2 construct: gene MAPK4

SNRK = SNRK (Homo sapiens, UniProt Q9NRH2)
Sequence of SNRK (Q9NRH2 whole entry): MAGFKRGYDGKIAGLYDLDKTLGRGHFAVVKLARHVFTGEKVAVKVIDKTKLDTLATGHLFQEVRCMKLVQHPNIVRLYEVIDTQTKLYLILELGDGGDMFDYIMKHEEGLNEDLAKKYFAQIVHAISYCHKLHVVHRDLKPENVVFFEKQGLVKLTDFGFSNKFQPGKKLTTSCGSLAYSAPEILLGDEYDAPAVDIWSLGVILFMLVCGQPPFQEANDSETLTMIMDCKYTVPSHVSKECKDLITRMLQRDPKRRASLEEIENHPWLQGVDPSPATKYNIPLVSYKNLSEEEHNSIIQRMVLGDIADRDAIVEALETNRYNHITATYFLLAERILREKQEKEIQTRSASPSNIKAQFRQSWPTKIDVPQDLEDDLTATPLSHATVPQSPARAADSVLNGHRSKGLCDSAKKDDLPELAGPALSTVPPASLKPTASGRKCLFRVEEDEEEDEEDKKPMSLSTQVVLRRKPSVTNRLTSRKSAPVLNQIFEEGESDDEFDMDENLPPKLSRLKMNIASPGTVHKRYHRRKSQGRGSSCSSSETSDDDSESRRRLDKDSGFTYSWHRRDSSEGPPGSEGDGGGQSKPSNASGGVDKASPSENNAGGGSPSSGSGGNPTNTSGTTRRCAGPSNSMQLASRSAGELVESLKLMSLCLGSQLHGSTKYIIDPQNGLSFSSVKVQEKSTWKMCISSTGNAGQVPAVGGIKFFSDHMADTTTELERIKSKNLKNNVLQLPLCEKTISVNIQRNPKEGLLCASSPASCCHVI

LOK = target: T3, LOK (Homo sapiens, UniProt O94804)
T3 construct: gene STK10
T3 sequence (O94804 whole entry): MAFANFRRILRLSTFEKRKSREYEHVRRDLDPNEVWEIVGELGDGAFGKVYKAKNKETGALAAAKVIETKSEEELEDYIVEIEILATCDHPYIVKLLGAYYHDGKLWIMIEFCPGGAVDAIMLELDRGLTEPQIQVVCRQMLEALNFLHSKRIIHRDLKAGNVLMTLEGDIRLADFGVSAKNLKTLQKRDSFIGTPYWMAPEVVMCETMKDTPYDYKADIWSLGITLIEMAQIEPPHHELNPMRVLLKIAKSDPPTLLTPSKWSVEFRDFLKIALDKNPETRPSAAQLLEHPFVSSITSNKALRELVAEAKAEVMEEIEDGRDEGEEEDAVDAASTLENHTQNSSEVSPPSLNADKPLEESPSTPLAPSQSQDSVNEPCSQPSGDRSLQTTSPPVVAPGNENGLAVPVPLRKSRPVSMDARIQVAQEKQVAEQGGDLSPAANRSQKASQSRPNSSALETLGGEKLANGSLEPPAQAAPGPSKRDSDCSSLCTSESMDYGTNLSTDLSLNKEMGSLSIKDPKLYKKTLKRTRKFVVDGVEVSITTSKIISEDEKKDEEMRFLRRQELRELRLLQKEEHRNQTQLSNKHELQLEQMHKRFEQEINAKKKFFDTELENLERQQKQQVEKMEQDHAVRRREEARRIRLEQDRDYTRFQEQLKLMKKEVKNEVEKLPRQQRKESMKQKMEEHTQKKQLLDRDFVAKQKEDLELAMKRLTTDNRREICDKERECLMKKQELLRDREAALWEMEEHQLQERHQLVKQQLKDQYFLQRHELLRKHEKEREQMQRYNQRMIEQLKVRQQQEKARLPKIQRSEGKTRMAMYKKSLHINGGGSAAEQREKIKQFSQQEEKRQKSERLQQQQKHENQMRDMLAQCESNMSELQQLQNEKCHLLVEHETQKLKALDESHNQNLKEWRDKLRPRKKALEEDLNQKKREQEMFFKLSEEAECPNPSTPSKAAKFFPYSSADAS

NEK11 = NEK11 (Homo sapiens, UniProt Q8NG66)
OSR1 = target: T4, OSR1 (Homo sapiens, UniProt O95747)
T4 construct: gene OXSR1

PIM1 = PIM1 (Homo sapiens, UniProt P11309)
Sequence of PIM1 (P11309 whole entry): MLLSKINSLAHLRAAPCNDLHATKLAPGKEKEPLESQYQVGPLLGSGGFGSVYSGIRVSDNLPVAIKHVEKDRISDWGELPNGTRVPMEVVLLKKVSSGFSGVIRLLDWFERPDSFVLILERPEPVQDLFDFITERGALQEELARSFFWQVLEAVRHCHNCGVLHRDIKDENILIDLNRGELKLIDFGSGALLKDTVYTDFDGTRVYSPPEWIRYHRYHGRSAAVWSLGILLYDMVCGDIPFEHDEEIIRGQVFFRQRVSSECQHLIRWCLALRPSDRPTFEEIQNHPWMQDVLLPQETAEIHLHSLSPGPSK

PCTK3 = target: T5, PCTK3 (Homo sapiens, UniProt Q07002)
T5 construct: gene CDK18
T5 sequence (Q07002 whole entry): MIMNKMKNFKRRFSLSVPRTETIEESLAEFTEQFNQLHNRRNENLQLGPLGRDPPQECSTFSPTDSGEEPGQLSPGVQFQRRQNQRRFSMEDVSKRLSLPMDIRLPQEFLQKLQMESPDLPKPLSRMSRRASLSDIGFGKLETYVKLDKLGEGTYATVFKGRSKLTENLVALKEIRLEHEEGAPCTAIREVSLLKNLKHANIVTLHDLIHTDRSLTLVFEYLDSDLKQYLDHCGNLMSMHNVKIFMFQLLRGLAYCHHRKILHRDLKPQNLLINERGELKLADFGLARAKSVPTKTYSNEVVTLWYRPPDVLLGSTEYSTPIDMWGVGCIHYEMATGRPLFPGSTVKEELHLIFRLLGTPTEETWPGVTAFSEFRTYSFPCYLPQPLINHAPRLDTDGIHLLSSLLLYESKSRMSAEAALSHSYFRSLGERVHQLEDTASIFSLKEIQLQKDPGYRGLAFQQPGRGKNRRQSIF

CAMKK1 = CAMKK1 (Homo sapiens, UniProt Q8N5S9)
BMPR2 = BMPR2 (Homo sapiens, UniProt Q13873)
RET(V804L) = RET(V804L) (Homo sapiens, UniProt P07949, V804L)
Sequence of RET(V804L) (P07949 whole entry V804L): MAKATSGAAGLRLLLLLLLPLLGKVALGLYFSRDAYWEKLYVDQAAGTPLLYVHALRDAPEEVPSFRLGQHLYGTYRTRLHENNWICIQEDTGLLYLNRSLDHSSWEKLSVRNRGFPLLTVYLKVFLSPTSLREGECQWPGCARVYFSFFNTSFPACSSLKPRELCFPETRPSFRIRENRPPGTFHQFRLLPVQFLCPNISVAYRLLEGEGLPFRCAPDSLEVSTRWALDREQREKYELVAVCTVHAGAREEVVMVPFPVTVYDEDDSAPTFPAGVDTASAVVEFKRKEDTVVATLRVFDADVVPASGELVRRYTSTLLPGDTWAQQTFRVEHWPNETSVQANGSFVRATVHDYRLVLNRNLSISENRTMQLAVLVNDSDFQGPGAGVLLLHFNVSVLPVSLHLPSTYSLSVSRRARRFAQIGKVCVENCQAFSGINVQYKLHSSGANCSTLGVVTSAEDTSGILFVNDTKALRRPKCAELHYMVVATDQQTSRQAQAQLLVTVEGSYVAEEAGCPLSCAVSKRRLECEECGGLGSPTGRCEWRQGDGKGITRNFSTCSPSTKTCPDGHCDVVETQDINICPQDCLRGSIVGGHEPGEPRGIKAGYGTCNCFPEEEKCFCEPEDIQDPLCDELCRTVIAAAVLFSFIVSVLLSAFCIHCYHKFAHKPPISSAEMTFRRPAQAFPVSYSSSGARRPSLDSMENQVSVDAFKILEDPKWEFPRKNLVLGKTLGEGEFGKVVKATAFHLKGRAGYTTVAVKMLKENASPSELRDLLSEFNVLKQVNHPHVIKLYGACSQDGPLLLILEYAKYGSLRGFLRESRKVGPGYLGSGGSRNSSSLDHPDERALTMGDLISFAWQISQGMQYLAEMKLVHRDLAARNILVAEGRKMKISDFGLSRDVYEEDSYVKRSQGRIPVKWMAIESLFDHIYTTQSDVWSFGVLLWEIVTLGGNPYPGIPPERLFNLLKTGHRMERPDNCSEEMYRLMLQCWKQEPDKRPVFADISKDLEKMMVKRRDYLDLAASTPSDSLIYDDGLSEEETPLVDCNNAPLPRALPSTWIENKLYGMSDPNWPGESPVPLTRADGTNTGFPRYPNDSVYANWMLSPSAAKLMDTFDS

CSNK2A1 = CSNK2A1 (Homo sapiens, UniProt P68400)
Sequence of CSNK2A1 (P68400 whole entry): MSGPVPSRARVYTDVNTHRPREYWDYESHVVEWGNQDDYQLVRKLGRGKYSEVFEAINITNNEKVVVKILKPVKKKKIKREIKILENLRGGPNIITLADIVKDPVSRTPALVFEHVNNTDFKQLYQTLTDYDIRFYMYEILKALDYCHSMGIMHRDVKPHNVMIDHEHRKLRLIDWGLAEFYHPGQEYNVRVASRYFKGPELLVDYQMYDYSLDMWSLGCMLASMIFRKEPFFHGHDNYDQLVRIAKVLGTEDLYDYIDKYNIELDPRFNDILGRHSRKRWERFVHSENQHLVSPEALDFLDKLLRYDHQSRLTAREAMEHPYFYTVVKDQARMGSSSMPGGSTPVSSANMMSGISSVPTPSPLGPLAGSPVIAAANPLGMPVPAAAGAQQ

PIK3CD = PIK3CD (Homo sapiens, UniProt O00329)
[1] = target: T6, ABL1(Y253F)-phosphorylated (Homo sapiens, UniProt P00519, Y253F)
T6 construct: phosphorylated

PKAC-beta = target: T7, PKAC-beta (Homo sapiens, UniProt P22694)
T7 construct: gene PRKACB

HUNK = target: T8, HUNK (Homo sapiens, UniProt P57058)
T8 sequence (P57058 1-714): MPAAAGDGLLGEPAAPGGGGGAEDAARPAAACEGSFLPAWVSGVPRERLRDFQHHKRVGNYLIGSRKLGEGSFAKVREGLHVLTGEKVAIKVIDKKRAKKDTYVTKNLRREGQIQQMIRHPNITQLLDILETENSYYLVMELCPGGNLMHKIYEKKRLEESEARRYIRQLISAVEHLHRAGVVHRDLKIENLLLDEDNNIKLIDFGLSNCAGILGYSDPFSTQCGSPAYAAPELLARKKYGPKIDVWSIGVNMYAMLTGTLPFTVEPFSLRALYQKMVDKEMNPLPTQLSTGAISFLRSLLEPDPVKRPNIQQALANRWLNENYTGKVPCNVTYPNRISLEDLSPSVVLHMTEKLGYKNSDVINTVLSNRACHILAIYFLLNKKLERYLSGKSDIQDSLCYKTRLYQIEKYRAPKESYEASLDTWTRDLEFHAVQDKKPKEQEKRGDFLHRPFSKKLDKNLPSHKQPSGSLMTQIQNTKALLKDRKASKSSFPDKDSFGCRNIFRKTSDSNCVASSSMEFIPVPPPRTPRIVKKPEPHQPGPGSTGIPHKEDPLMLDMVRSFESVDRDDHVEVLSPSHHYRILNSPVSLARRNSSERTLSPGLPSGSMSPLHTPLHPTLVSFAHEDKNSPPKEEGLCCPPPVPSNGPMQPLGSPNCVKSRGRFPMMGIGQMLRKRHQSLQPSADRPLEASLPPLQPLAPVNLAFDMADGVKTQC

MST4 = target: T9, MST4 (Homo sapiens, UniProt Q9P289)
T9 construct: gene STK26
T9 sequence (Q9P289 whole entry): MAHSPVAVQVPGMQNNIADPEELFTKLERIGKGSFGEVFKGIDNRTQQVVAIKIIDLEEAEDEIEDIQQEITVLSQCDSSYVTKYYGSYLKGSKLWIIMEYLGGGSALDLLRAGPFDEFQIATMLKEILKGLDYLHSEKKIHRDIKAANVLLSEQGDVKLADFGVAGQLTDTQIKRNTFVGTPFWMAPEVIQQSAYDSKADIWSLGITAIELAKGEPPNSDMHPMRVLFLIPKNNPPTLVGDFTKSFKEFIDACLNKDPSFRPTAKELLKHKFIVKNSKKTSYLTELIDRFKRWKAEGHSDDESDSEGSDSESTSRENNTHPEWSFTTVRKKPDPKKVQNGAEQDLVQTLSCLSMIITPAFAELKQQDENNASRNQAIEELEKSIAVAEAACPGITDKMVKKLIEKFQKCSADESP

[2] = read-out: Percent control / Acalabrutinib
[3] = read-out: Percent control / Ibrutinib
[4] = read-out: Percent control / Tirabrutinib
[5] = read-out: Percent control / Zanubrutinib

T2 sequence (P31152 whole entry): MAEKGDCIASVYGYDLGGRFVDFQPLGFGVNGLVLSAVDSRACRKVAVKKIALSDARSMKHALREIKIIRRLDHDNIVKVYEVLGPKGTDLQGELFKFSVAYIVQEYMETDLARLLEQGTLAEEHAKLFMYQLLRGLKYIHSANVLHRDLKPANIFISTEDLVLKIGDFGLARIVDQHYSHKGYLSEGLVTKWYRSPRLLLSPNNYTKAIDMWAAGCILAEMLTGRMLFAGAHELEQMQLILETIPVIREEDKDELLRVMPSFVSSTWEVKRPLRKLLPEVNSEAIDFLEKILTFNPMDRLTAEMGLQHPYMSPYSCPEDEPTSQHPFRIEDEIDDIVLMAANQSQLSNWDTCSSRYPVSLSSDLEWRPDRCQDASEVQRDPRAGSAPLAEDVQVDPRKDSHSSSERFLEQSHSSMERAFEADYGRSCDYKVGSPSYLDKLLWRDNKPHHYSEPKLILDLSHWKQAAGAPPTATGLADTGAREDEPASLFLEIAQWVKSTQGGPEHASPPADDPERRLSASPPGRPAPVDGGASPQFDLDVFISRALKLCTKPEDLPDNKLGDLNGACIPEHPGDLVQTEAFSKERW

`CC#CC(=O)N1CCC[C@H]1c1nc(-c2ccc(C(=O)Nc3ccccn3)cc2)c2c(N)nccn12` [Acalabrutinib] showed a remaining binding at 0.3 µM (EGFR(T790M); [2]) of 93%, a remaining binding at 0.3 µM (YSK4; [2]) of 74% and a remaining binding at 0.3 µM (ERK4; [2]) of 96%. The remaining binding at 0.3 µM (SNRK; [2]) was 93%, the remaining binding at 0.3 µM (LOK; [2]) was 99% and the remaining binding at 0.3 µM (NEK11; [2]) was 97%. It also gave a remaining binding at 0.3 µM (OSR1; [2]) of 92%, a remaining binding at 0.3 µM (PIM1; [2]) of 94% and a remaining binding at 0.3 µM (PCTK3; [2]) of 90%. For the same compound, the remaining binding at 0.3 µM (CAMKK1; [2]) was 92%, the remaining binding at 0.3 µM (BMPR2; [2]) was 99% and the remaining binding at 0.3 µM (RET(V804L); [2]) was 99%. It also gave a remaining binding at 0.3 µM (CSNK2A1; [2]) of 99%, a remaining binding at 0.3 µM (PIK3CD; [2]) of 88% and a remaining binding at 0.3 µM [1, 2] of 90%.

`C=CC(=O)N1CCC[C@@H](n2nc(-c3ccc(Oc4ccccc4)cc3)c3c(N)ncnc32)C1` [Ibrutinib] gave a remaining binding at 0.3 µM (PKAC-beta; [3]) of 85%, a remaining binding at 0.3 µM (HUNK; [3]) of 9% and a remaining binding at 0.3 µM (MST4; [3]) of 89%. It also gave a remaining binding at 0.3 µM (CSNK2A1; [3]) of 90%.

With `CC#CC(=O)N1CC[C@@H](n2c(=O)n(-c3ccc(Oc4ccccc4)cc3)c3c(N)ncnc32)C1` [Tirabrutinib] the remaining binding at 0.3 µM (EGFR(T790M); [4]) was 75% and the remaining binding at 0.3 µM (HUNK; [4]) was 11%.

`C=CC(=O)N1CCC([C@@H]2CCNc3c(C(N)=O)c(-c4ccc(Oc5ccccc5)cc4)nn32)CC1` [Zanubrutinib] gave a remaining binding at 0.3 µM (YSK4; [5]) of 100%, a remaining binding at 0.3 µM (ERK4; [5]) of 99% and a remaining binding at 0.3 µM (SNRK; [5]) of 90%. It also gave a remaining binding at 0.3 µM (LOK; [5]) of 93%, a remaining binding at 0.3 µM (PKAC-beta; [5]) of 82% and a remaining binding at 0.3 µM (NEK11; [5]) of 98%. For the same compound, the remaining binding at 0.3 µM (OSR1; [5]) was 100%, the remaining binding at 0.3 µM (PIM1; [5]) was 73% and the remaining binding at 0.3 µM (MST4; [5]) was 63%. The remaining binding at 0.3 µM (PCTK3; [5]) was 92%, the remaining binding at 0.3 µM (CAMKK1; [5]) was 87% and the remaining binding at 0.3 µM (BMPR2; [5]) was 93%. For the same compound, the remaining binding at 0.3 µM (RET(V804L); [5]) was 100%, the remaining binding at 0.3 µM (PIK3CD; [5]) was 37% and the remaining binding at 0.3 µM [1, 5] was 85%.
